Data taken from ChEMBL document CHEMBL1201862, “PubChem BioAssay data set” (2004).
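Each compound was tested at five concentrations against cells in 96-well plates for 48 hours. GI50 = concentration required for 50% inhibition of growth.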 Active and inactive are the calls of the source. Cut-off read from the data, not from the text of the source: active = GI50 up to about 1.1 µM and inactive = higher.

Legend:
Assay in all cases: NCI-60 cell line screen, 48 h
COLO 205 = tested on: COLO 205
SK-MEL-28 = tested on: SK-MEL-28
Malme-3M = tested on: Malme-3M
OVCAR-8 = tested on: OVCAR-8
RPMI-8226 = tested on: RPMI-8226
UACC-62 = tested on: UACC-62
HOP-92 = tested on: HOP-92
HT-29 = tested on: HT-29
OVCAR-4 = tested on: OVCAR-4
HCC 2998 = tested on: HCC 2998
NCI-H23 = tested on: NCI-H23
MDA-MB-231 = tested on: MDA-MB-231
TK-10 = tested on: TK-10
SNB-19 = tested on: SNB-19
SK-MEL-5 = tested on: SK-MEL-5
EKVX = tested on: EKVX
MCF7 = tested on: MCF7
CAKI-1 = tested on: CAKI-1
HL-60 = tested on: HL-60
SF-539 = tested on: SF-539

Measured: GI50

Cc1ccc(C2(c3ccc(Cl)cc3)c3ccccc3C3=NCCN32)cc1 (centres undefined)
inactive: COLO 205 4.6 µM | SK-MEL-28 14.7 µM | Malme-3M 3.67 µM | OVCAR-8 14.5 µM | RPMI-8226 7.16 µM | UACC-62 7.1 µM | HOP-92 6.04 µM | HT-29 1.89 µM | OVCAR-4 1.83 µM | HCC 2998 5.58 µM | NCI-H23 14.3 µM | MDA-MB-231 5.7 µM | TK-10 5.43 µM | SNB-19 13.7 µM | SK-MEL-5 10.9 µM | EKVX 14.1 µM | MCF7 1.44 µM | CAKI-1 21.5 µM | HL-60 6.79 µM

N#C/C(=C\c1ccccc1)C(=O)Nc1nnc(-c2ccccc2)o1
inactive: COLO 205 28.3 µM | SK-MEL-28 39.9 µM | Malme-3M 31 µM | OVCAR-8 36.1 µM | RPMI-8226 19.2 µM | UACC-62 22.3 µM | HOP-92 47.9 µM | HT-29 41.3 µM | OVCAR-4 32.4 µM | HCC 2998 63.1 µM | NCI-H23 39 µM | MDA-MB-231 31.5 µM | TK-10 > 100 µM | SK-MEL-5 19 µM | EKVX 47.3 µM | MCF7 50.9 µM | CAKI-1 28.1 µM | HL-60 20.7 µM

O=C(O)CCN(CCC(=O)O)c1ccc(/C=C2\SC(=S)NC2=O)cc1
inactive: COLO 205 > 100 µM | SK-MEL-28 > 100 µM | Malme-3M 1.48 µM | OVCAR-8 > 100 µM | RPMI-8226 > 100 µM | UACC-62 > 100 µM | HOP-92 > 100 µM | HT-29 > 100 µM | OVCAR-4 > 100 µM | HCC 2998 > 100 µM | NCI-H23 > 100 µM | MDA-MB-231 > 100 µM | TK-10 > 100 µM | SNB-19 > 100 µM | SK-MEL-5 > 100 µM | EKVX > 100 µM | MCF7 > 100 µM | CAKI-1 > 100 µM | SF-539 > 100 µM | HL-60 > 100 µM

CO/C(=N\N=C\c1cccc(Cl)c1)c1ccncc1
inactive: COLO 205 > 10 µM | Malme-3M > 10 µM | OVCAR-8 > 10 µM | RPMI-8226 > 10 µM | HOP-92 > 10 µM | HT-29 > 10 µM | OVCAR-4 > 10 µM | HCC 2998 > 10 µM | NCI-H23 > 10 µM | MDA-MB-231 > 10 µM | TK-10 > 10 µM | SNB-19 > 10 µM | EKVX > 10 µM | MCF7 > 10 µM | CAKI-1 > 10 µM | HL-60 > 10 µM

CC1(C)S[C@@H]2[C@H](NC(=O)C3(N)CCCCC3)C(=O)N2[C@H]1C(=O)O [CYCLACILLIN]
inactive: COLO 205 > 100 µM | SK-MEL-28 > 100 µM | Malme-3M > 100 µM | OVCAR-8 > 100 µM | RPMI-8226 > 100 µM | UACC-62 > 100 µM | HOP-92 > 100 µM | HT-29 > 100 µM | OVCAR-4 > 100 µM | HCC 2998 > 100 µM | NCI-H23 > 100 µM | MDA-MB-231 > 100 µM | TK-10 > 100 µM | SNB-19 > 100 µM | SK-MEL-5 > 100 µM | EKVX > 100 µM | MCF7 > 100 µM | CAKI-1 > 100 µM | SF-539 > 100 µM | HL-60 > 100 µM

COc1cccc2nc3ccccc3nc12
inactive: COLO 205 90.2 µM | SK-MEL-28 > 100 µM | Malme-3M > 100 µM | OVCAR-8 23.8 µM | RPMI-8226 17 µM | UACC-62 50.9 µM | HOP-92 33 µM | HT-29 46.3 µM | HCC 2998 79.4 µM | NCI-H23 > 100 µM | MDA-MB-231 67.6 µM | TK-10 66.1 µM | SNB-19 94.6 µM | SK-MEL-5 54.8 µM | EKVX 86.7 µM | MCF7 54.7 µM | CAKI-1 61 µM | SF-539 84.5 µM | HL-60 > 100 µM

Cc1cc(S(=O)(=O)Nc2nc(-c3ccccn3)n[nH]2)c(S)cc1Cl
inactive: COLO 205 25.9 µM | SK-MEL-28 35.1 µM | Malme-3M 18.1 µM | OVCAR-8 11 µM | RPMI-8226 33.7 µM | UACC-62 7.96 µM | HOP-92 19 µM | HT-29 15.3 µM | OVCAR-4 18.6 µM | HCC 2998 15 µM | MDA-MB-231 29.2 µM | TK-10 10 µM | SNB-19 16.9 µM | SK-MEL-5 8.55 µM | EKVX 16.1 µM | MCF7 31.3 µM | CAKI-1 5.21 µM | SF-539 21.7 µM | HL-60 16.1 µM

CCOC(=O)C(=[N+]=[N-])C(=O)Nc1nn2nnnc2c2ccccc12
inactive: COLO 205 > 100 µM | SK-MEL-28 > 100 µM | Malme-3M > 100 µM | OVCAR-8 > 100 µM | RPMI-8226 > 100 µM | UACC-62 > 100 µM | HOP-92 > 100 µM | HT-29 > 100 µM | OVCAR-4 > 100 µM | HCC 2998 > 100 µM | NCI-H23 > 100 µM | MDA-MB-231 > 100 µM | SNB-19 > 100 µM | SK-MEL-5 > 100 µM | EKVX > 100 µM | MCF7 > 100 µM | CAKI-1 > 100 µM | SF-539 > 100 µM | HL-60 > 100 µM

N=c1c2c3n(c4c(=O)n(-c5ccccc5)c(=S)n(c(=O)n1-c1ccccc1)c24)CCCCC3
inactive: COLO 205 > 100 µM | SK-MEL-28 > 100 µM | Malme-3M > 100 µM | OVCAR-8 > 100 µM | UACC-62 > 100 µM | HOP-92 > 100 µM | HT-29 > 100 µM | OVCAR-4 > 100 µM | HCC 2998 > 100 µM | NCI-H23 > 100 µM | MDA-MB-231 > 100 µM | TK-10 > 100 µM | SNB-19 > 100 µM | SK-MEL-5 > 100 µM | EKVX > 91.4 µM | MCF7 > 100 µM | CAKI-1 > 100 µM | SF-539 > 89.7 µM | HL-60 > 100 µM

O=C1CC(C(O)CO)CC(=O)N1 (centres undefined)
inactive: SK-MEL-28 > 100 µM | Malme-3M > 100 µM | OVCAR-8 > 100 µM | RPMI-8226 > 100 µM | HOP-92 > 100 µM | HT-29 > 100 µM | HCC 2998 > 100 µM | NCI-H23 > 100 µM | MDA-MB-231 > 100 µM | TK-10 > 100 µM | SNB-19 > 100 µM | SK-MEL-5 > 100 µM | MCF7 > 100 µM | CAKI-1 > 100 µM | SF-539 > 100 µM | HL-60 > 100 µM

O=C(Nc1nc(C23CC4CC(CC(C4)C2)C3)cs1)c1cc2cc([N+](=O)[O-])ccc2oc1=O
inactive: COLO 205 41 µM | SK-MEL-28 75.5 µM | Malme-3M 46.2 µM | OVCAR-8 > 100 µM | RPMI-8226 > 100 µM | HOP-92 54.8 µM | HT-29 58.1 µM | OVCAR-4 17.8 µM | HCC 2998 > 100 µM | NCI-H23 77.1 µM | MDA-MB-231 20.9 µM | TK-10 > 100 µM | SNB-19 72.1 µM | SK-MEL-5 25.6 µM | EKVX 53 µM | MCF7 56.8 µM | CAKI-1 > 100 µM | SF-539 > 100 µM | HL-60 > 100 µM
